Experimental findings from patent US20220056014A1, “PHENYLPYRROLIDINE COMPOUND AND USE THEREOF” (WUHAN HUMANWELL INNOVATIVE DRUG RESEARCH AND DEVELOPMENT …, priority 2018, published 2022) are described below.

One may read the IC50 as the concentration needed to halve the response being measured. A low value points to greater potency in that assay. By AUC(0-t) is commonly meant exposure summed from dosing to a finite time, without extrapolation to infinity. A high value points to more exposure. Broadly, the Cmax is the peak of the concentration-time curve. A word on the Tmax: it is the time at which the peak concentration occurs.

Read-outs that look alike come from different tables or passages of the source.

One data set deals with T1, PDE4B (Homo sapiens, UniProt Q07343).
T1 construct: purchased Enzo Life Sciences BML-SE522-0020
T1 sequence (Q07343 whole entry): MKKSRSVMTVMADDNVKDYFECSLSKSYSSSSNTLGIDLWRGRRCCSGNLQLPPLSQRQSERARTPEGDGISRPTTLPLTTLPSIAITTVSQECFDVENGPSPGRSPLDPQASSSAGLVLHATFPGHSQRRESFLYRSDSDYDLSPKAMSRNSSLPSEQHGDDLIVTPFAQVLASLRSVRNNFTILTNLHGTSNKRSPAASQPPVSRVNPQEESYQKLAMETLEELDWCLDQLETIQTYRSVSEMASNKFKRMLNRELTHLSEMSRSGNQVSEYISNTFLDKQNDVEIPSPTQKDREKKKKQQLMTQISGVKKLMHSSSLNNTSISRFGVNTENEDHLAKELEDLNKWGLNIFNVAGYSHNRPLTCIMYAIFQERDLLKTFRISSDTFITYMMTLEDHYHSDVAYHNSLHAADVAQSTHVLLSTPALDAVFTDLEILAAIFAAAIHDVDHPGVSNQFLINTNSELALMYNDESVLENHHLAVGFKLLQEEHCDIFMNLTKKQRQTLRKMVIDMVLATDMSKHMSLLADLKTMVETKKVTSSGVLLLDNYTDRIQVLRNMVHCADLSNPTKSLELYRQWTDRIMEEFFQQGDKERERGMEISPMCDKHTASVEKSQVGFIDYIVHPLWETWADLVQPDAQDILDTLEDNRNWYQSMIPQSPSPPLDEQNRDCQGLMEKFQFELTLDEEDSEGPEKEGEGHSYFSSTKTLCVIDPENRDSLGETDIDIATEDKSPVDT
Kind of data set: PDE4B enzyme activity assay (PDE-Glo Phosphodiesterase Assay Kit). Format: biochemical. Conditions: for IC50 (PDE4D)/IC50 (PDE4B): selectivity ratio. Here is the method:
(§1) For the previously synthesized compounds, the inhibitory activity of the compounds against PDE4B and against PDE4D was tested by using PDE-Glo Phosphodiesterase Assay Kit (promega, V1361). In short, in accordance with the instructions of the kit, a concentrated stock solution (10 mM) the compound to be tested was first prepared with DMSO solvent, and the concentrated stock solution was then diluted into 10× working solutions with a Reaction buffer provided in the kit. With the Reaction buffer, on ice, PDE4B enzyme (Enzo Life Sciences, BML-SE522-0020) was diluted to a concentration of 1 ng/μl to obtain a PDE4B enzyme working solution, and PDE4D enzyme (Enzo Life Sciences, BML-SE523-0020) was diluted to a concentration of 4 ng/μl to obtain a PDE4D enzyme working solution. 1.5 μl of the PDE4B working solution (or PDE4D working solution) and 1 μl of the compound working solution were added to wells of 384-well plate (Corning, CLS3707), and incubated with shaking at room temperature for 5 min, followed by adding 2.5 μl of cAMP (in Reaction buffer, 2 μM) per well, incubating with shaking at room temperature for 20 min. 2.5 μl/well of 1× Termination Buffer, and then 2.5 μl/well of 1× Detection Buffer were added, and further incubated with shaking at room temperature for 20 min. 10 μl/well of 1× Kinase-Glo was added, and the plate was incubated with shaking at room temperature for 10 min, and bioluminescence was measured with PheraStar instrument. The experimental results were plotted with GraphPad Prism software, and fitted to calculate IC50 of each compound.

In data set [1] the test system is LPS-induced secretion of TNFα in human PBMCs. Description: LPS-induced secretion of TNFα in human PBMCs. The class given is cell-based. Conditions: Homo sapiens, PBMC, 24 h, LPS 10 ng/ml. Here is the method:
Extraction process of peripheral blood mononuclear cells (PBMCs): one unit of human peripheral blood concentrate (concentrated from 200 cc peripheral blood) was sucked and added with 0.9% saline until a total volume reached 120 ml, and mixed homogenously. 15 ml Lymphoprep™ was added into 50 ml centrifuge tube, and then 30 ml of diluted blood concentrate was carefully and slowly added thereto, allowing the diluted blood to be stacked on the layered solution and preventing the diluted blood from being mixed into the separated solutions or breaking the surface of the separated solution, wherein a ratio of Lymphoprep™ to the diluted blood was 1:2. The centrifuge tubes were balanced and placed in a horizontal centrifuge (eppendorf, 5810R), and centrifuged at 800 g and 20° C. for 20 min. The centrifuge tubes were carefully taken out. PBMCs were absorbed by directly inserting the Pasteur pipette deep into the buffy coat. The obtained PBMCs were gently pipetted with 3 times the volume of 0.9% normal saline or PBS (without calcium or magnesium ions) to mix homogenously. After that, the cells were centrifuged at 250 g and 20° C. for 10 min, the supernatant was removed to remove the platelets remaining in the cell suspension. The obtained cell pellet was resuspended in 20 ml of PBS, and counted using trypan blue.
Compound screening by using PBMCs: the PBMC suspension obtained above was centrifuged to remove PBS, then resuspended in complete medium (RPMI1640+10% FBS+1% P/S) and counted. 100 μL/well of the cells was seeded at 5×10^4/well. Each of the compounds to be screened was prepared as 4 times the final concentration, which was added to the cells at 50 μL/well. The compound was pre-incubated for 30 min in advance of being added to the cells. Meanwhile, control wells to which the compound was not added were provided. A final stimulation concentration of LPS was 10 ng/ml, and LPS was formulated as 4 times the final stimulation concentration, and added to the cells at 50 μL/well. Meanwhile, control wells, i.e., wells without LPS were provided. The cells were incubated for 24 h, and 10% of the supernatant was collected for detection. The obtained supernatant was detected using Invitrogen's Human TNF-α kit (REF: 88-7346-88).

Data set [2] in a line: Mouse pharmacokinetic test. Format: in vivo, CD-1 mice. Conditions: male, CD-1, plasma, oral gavage 10 mg/kg. The method, then:
(§2) In the rat pharmacokinetic test, 3 male SD rats (180-240 g) were fasted overnight, and orally administered with 10 mg/kg of compound to be tested. Blood was collected before the administration, and 15 min, 30 min, 1 h, 2 h, 4 h, 8 h, and 24 h hours after the administration. The blood sample was centrifuged at 8000 rpm for 6 min at 4° C., and the plasma was collected and stored at −20° C. The plasma collected at each time point was added and mixed with 3-5 times the amount of acetonitrile solution containing an internal standard, vortexed for 1 min, centrifuged at 13,000 rpm for 10 min at 4° C. The supernatant was taken and mixed with 3 times the amount of water, and an appropriate amount of the mixture was taken for LC-MS/MS analysis. The main pharmacokinetic parameters were analyzed with WinNonlin 7.0 software non-compartmental model.
In the mouse pharmacokinetic test, 9 male CD-1 mice (20-25 g) were fasted overnight, and orally administered with 10 mg/kg of the compound to be tested. Bloods of 3 mice were collected at each time point, and bloods of 9 mice were alternately collected in total. In the pharmacokinetic test in canine, 3 male beagle dogs (8-10 kg) were fasted overnight, and orally administered with 5 mg/kg of the compound to be test. In the pharmacokinetic test of cynomolgus monkeys, 3 male cynomolgus monkeys (4 to 6.5 kg) were fasted overnight, and orally administered 20 mg/kg of the compound to be test. The remaining processes are the same as those of the rat pharmacokinetic test.

A further data set can be described thus: Rat pharmacokinetic test. The class given is in vivo, SD rats. Conditions: male, Sprague-Dawley (SD), plasma, oral gavage 10 mg/kg. The method, then:
as §2

Data set [3] has as its system LPS-stimulated TNF-α release. Description: LPS-stimulated TNF-α release in mice. The class given is in vivo, Balb/c mice. Conditions: Mus musculus, oral 50 mg/kg (positive control 100 mg/kg), 1 mg/kg LPS i.p. The method, then: 18 Balb/c mice (6 to 8 weeks) were randomly assigned to a blank group, a model group, and an administration group, 6 mice in each group. A vehicle (blank group, model group) or 50 mg/kg compound (administration group, where the dose for the positive control group was 100 mg/kg) was orally administrated. 30 min after the oral administration, PBS (blank group) or 1 mg/kg LPS (model group and administration group) was injected intraperitoneally. 90 min or 120 min after the intraperitoneal injection, blood was collected from the hearts of the mice, and still stood at 2-8° C. for 4 hours, and centrifuged at 5000 rpm for 10 min to collect the serum. The serum was stored at −80° C. for testing.
The serum TNF-α level was tested using a mouse TNF-α detection kit (Mouse TNFa ELISA kit: Biolegend, Cat: 430904). The inhibitory activity of the compounds against the TNF-α release was calculated based on the serum TNF-α level.
Inhibitory activity of compound %={1−(TNFα concentration of administration group−TNFα concentration of blank group)/(TNFα concentration of model group−TNFα concentration of blank group)}×100%.

The next data set has as its target T2, PDE4D (Homo sapiens, UniProt Q08499).
T2 construct: purchased Enzo Life Sciences BML-SE523-0020
Description: PDE4D enzyme activity assay (PDE-Glo Phosphodiesterase Assay Kit). The class given is biochemical. The method, then: as §1

The mark [4] stands for this setting: 1.5 h, blood 90 min after LPS, read-out: Inhibition rate (%) of LPS-stimulated TNF-α release, 90 min.
Where [5] appears, read: 2 h, blood 120 min after LPS, read-out: Inhibition rate (%) of LPS-stimulated TNF-α release, 120 min.

T2 sequence (Q08499 whole entry): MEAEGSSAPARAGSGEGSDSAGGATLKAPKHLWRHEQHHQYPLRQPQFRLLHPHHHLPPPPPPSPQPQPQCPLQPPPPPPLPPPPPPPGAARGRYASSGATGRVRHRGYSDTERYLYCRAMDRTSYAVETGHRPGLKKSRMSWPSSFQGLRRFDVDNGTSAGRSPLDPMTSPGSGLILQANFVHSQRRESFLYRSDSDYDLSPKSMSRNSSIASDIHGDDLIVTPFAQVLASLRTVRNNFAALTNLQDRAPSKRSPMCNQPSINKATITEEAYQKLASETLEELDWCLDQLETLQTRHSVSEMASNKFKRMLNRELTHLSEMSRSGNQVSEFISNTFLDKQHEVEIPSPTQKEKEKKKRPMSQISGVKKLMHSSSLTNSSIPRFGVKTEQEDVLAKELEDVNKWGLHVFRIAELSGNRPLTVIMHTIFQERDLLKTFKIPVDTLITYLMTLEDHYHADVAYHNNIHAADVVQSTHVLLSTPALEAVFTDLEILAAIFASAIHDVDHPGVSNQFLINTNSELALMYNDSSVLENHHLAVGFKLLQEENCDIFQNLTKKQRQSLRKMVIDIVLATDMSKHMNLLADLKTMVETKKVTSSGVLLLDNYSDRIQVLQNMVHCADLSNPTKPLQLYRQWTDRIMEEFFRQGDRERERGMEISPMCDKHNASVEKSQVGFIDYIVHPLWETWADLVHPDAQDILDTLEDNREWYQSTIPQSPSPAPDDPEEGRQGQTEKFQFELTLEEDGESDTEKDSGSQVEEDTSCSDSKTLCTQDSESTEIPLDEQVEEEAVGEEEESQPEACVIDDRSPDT

As for `COc1ccc([C@@H]2CN(C(=O)[C@@H](O)CO)C[C@@]2(C)[C@@H](C)O)cc1OC1CN(c2cc(C#N)c(C)cn2)C1` [Compound 001, 2-(3-(5-((3S,4S)-1-((S)-2,3-dihydroxypropanoyl)-4-((R)-1-hydroxyethyl)-4-methylpyrrolidin-3-yl)-2-methoxyphenoxy)azetidin-1-yl)-5-methylisonicotinonitrile], the values for the IC50 (against PDE4B; in data set [1]; against PDE4D) were 910 pM, 360 pM and 670 pM, respectively. For the same molecule, the “IC50 (PDE4D)/IC50 (PDE4B)” value at PDE4B came out at 0.74. For the same molecule, the AUC(0-t) in data set [2] was 311 ng·h/mL; in the data set “Rat pharmacokinetic test”, 23.5 ng·h/mL. Besides, the values for the Cmax (in data set [2]; in “Rat pharmacokinetic test”) were 339 ng/mL and 22.5 ng/mL, respectively. The Tmax in data set [2] was 15 min; in “Rat pharmacokinetic test”, 19.8 min. Moreover, the results for the inhibition in vivo at 50 mg/kg in data set [3] (setting [4]) and in data set [3] (setting [5]) were 53.6% and 39.5%, respectively.
Consider `COc1ccc([C@@H]2CN(C(=O)[C@@H](O)CO)C[C@@]2(C)[C@@H](C)O)cc1OC1CN(c2ncc(Cl)cc2F)C1` [Compound 009, (S)-1-((3S,4S)-4-(3-((1-(5-chloro-3-fluoropyridin-2-yl)azetidin-3-yl)oxy)-4-methoxyphenyl)-3-((R)-1-hydroxyethyl)-3-methylpyrrolidin-1-yl)-2,3-dihydroxypropan-1-one], for which the half-inhibitory concentration (IC50) on PDE4B stood at 780 pM; in data set [1] it was 7570 pM; against PDE4D, 4670 pM. Besides, the “IC50 (PDE4D)/IC50 (PDE4B)” value at PDE4B came out at 5.99. Further, the inhibition in vivo at 50 mg/kg in data set [3] (setting [5]) amounted to 47.6%.
Take `CCOc1ccc(N2CC(Oc3cc([C@@H]4CN(C(=O)[C@@H](O)CO)C[C@@]4(C)[C@@H](C)O)ccc3OC)C2)nc1` [Compound 022, (S)-1-((3S,4S)-4-(3-((1-(5-ethoxypyridin-2-yl)azetidin-3-yl)oxy)-4-methoxyphenyl)-3-((R)-1-hydroxyethyl)-3-methylpyrrolidin-1-yl)-2,3-dihydroxypropan-1-one]: the IC50 against PDE4B came to 750 pM; in data set [1] it was 1010 pM; on PDE4D, 1180 pM. Also, on PDE4B, the “IC50 (PDE4D)/IC50 (PDE4B)” value came out at 1.57. Further, the values for the AUC(0-t) (in data set [2]; in “Rat pharmacokinetic test”) were 215 ng·h/mL and 410 ng·h/mL, respectively. For the same molecule, the Cmax was 186 ng/mL in data set [2] and 221 ng/mL in “Rat pharmacokinetic test”. For the same molecule, the time of peak concentration (Tmax) in data set [2] was found to be 15 min; in the data set “Rat pharmacokinetic test”, 19.8 min. The inhibition in vivo at 50 mg/kg in data set [3] (setting [4]) was 60.7%.
In the case of `COc1ccc([C@@H]2CN(C(=O)[C@@H](O)CO)C[C@@]2(C)[C@@H](C)O)cc1OC1CN(c2ccc(C(C)C)cn2)C1` [Compound 032, (S)-2,3-dihydroxy-1-((3S,4S)-3-((R)-1-hydroxyethyl)-4-(3-((1-(5-isopropylpyridin-2-yl)azetidin-3-yl)oxy)-4-methoxyphenyl)-3-methylpyrrolidin-1-yl)propan-1-one], the IC50 on PDE4B came to 330 pM; in data set [1] it was 260 pM; against PDE4D, 3250 pM. Further, on PDE4B, the “IC50 (PDE4D)/IC50 (PDE4B)” value was determined as 9.85. Also, the inhibition in vivo at 50 mg/kg was found to be 75.8% in data set [3] (setting [4]) and 84% in data set [3] (setting [5]).
For `COc1ccc([C@@H]2CN(C(=O)[C@@H](O)CO)C[C@@]2(C)[C@@H](C)O)cc1OC1CN(c2ccc(CC(F)(F)F)cn2)C1` [Compound 033, (S)-2,3-dihydroxy-1-((3S,4S)-3-((R)-1-hydroxyethyl)-4-(4-methoxy-3-((1-(5-(2,2,2-trifluoroethyl)pyridin-2-yl)azetidin-3-yl)oxy)phenyl)-3-methylpyrrolidin-1-yl)propan-1-one], the values for the IC50 (against PDE4B; in data set [1]; at PDE4D) were 220 pM, 530 pM and 2810 pM, respectively. On PDE4B, the “IC50 (PDE4D)/IC50 (PDE4B)” value was 12.8. Further, the inhibition in vivo at 50 mg/kg in data set [3] (setting [4]) amounted to 70.3%; in data set [3] (setting [5]) it was 75.9%.
For `COc1ccc([C@@H]2CN(C(=O)[C@@H](O)CO)C[C@@]2(C)[C@@H](C)O)cc1OC1CN(c2ccc(C3CC3)cn2)C1` [Compound 034, (S)-1-((3S,4S)-4-(3-((1-(5-cyclopropylpyridin-2-yl)azetidin-3-yl)oxy)-4-methoxyphenyl)-3-((R)-1-hydroxyethyl)-3-methylpyrrolidin-1-yl)-2,3-dihydroxypropan-1-one], the IC50 was found to be 250 pM against PDE4B, 320 pM in data set [1] and 2960 pM against PDE4D. Besides, the “IC50 (PDE4D)/IC50 (PDE4B)” value on PDE4B came out at 11.8. Besides, the inhibition in vivo at 50 mg/kg in data set [3] (setting [4]) amounted to 76.4%; in data set [3] (setting [5]), 85.6%.
